The source of these data is patent publication USRE41209E1, “Platinum complexes” (Genzyme Corporation, priority 1996, dated 2010).

pIC50: −log10 of the molar value. Read-outs that look alike come from different tables or passages of the source.

For one data set, the system named is CH1. Nature of the data set: Inhibition of cell proliferation, human cancer cell lines in culture (CH1). The class given is cell-based.
Another data set relates to HX62. Nature of the data set: Inhibition of cell proliferation, human cancer cell lines in culture (HX62). Format: cell-based. The procedure: (§1) The complexes of the invention were tested against human cancer cell lines grown in cell culture according to established testing procedures (described by Kelland et al, Cancer Research 53, 2581-2586, June 1993). […] The results are given in concentrations (μM) necessary to achieve a 50% decrease in cell proliferation, with resistance factors in brackets for the cisplatin-resistant cell lines.

The test system of another data set is 41M. Put plainly: Inhibition of cell proliferation, human cancer cell lines in culture (41M). Conditions: read-out: concentration necessary to achieve a 50% decrease in cell proliferation. Format: cell-based.
A further data set has as its system CH1R. Put plainly: Inhibition of cell proliferation, human cancer cell lines in culture (CH1R). Format: cell-based. The procedure:
as §1

For the next data set, the system named is SKOV3. Put plainly: Inhibition of cell proliferation, human cancer cell lines in culture (SKOV3). Format: cell-based. How it is done:
as §1

Another data set relates to A2780. Put plainly: Inhibition of cell proliferation, human cancer cell lines in culture (A2780). Format: cell-based.
A further data set relates to 41MR. Nature of the data set: Inhibition of cell proliferation, human cancer cell lines in culture (41MR). The class given is cell-based. The procedure:
as §1

In the next data set the test system is A2780R. Put plainly: Inhibition of cell proliferation, human cancer cell lines in culture (A2780R). Format: cell-based. How it is done:
as §1

For the next data set, the system named is CH1 xenograft. Put plainly: CH1 xenograft antitumour activity. The class given is in vivo. The conditions noted are these: for antitumour effect and tumour regrowth in the CH1 xenograft: derived from cell line sensitive to cisplatin. From the text: It has been reported by Tobe et al (Wadley Medical Bulletin 7, 1, 114-135) that steric effects of bulky substituents close to the platinum atom have a profound effect upon the rate of substitution reactions there. At that time no systematic study of the way in which variation of the substituent on the primary amine affects the rate and extend of bonding of the Pt complex to DNA had been undertaken.

For another data set, the system named is ADJ/PC6. Put plainly: ADJ/PC6 tumour mass reduction in Balb C mice. Format: in vivo.
The conditions of data set [1]: mouse, in vivo, po.
[2] abbreviates: CH1; read-out: concentration necessary to achieve a 50% decrease in cell proliferation.
Setting [3] is: HX62, inherently resistant to cisplatin; read-out: concentration necessary to achieve a 50% decrease in cell proliferation.
Setting [4] is: HX62 IC50 divided by the IC50 for the 41M line.
Where [5] appears, read: inherently cisplatin sensitive line.
Setting [6] is: CH1R, bred to be resistant to cisplatin; read-out: concentration necessary to achieve a 50% decrease in cell proliferation.
Where [7] appears, read: SKOV3, inherently resistant to cisplatin; read-out: concentration necessary to achieve a 50% decrease in cell proliferation.
Where [8] appears, read: SKOV3 IC50 divided by the IC50 for the 41M line.
Where [9] appears, read: A2780; read-out: concentration necessary to achieve a 50% decrease in cell proliferation.
Setting [10] is: 41MR, bred to be resistant to cisplatin; read-out: concentration necessary to achieve a 50% decrease in cell proliferation.
The mark [11] stands for this setting: A2780R, bred to be resistant to cisplatin; read-out: concentration necessary to achieve a 50% decrease in cell proliferation.
Where [12] appears, read: Homo sapiens; read-out: concentration necessary to achieve a 50% decrease in cell proliferation.
Setting [13] is: Homo sapiens, read-out: concentration necessary to achieve a 50% decrease in cell proliferation.

With `N.N.O=C([O-])C1(C(=O)[O-])CCC1.[Pt+2]` [Carboplatin, reference compound], the pIC50 in the data set on CH1 (setting [2]) is 5.89; in the data set with HX62 (setting [3]) it was 4.07; in the data set with 41M (setting [5]) it was 5.48; with CH1R (setting [6]), 5.22; with SKOV3 (setting [7]) it was 4.42; in the data set on A2780 (setting [9]), 5.59. The pIC50 is 5.06 in the data set with 41MR (setting [10]) and 4.43 in the data set on A2780R (setting [11]). For the same compound, the resistance factor result with HX62 (setting [4]) is on record as “(26)”; in the data set with CH1R (CH1R versus CH1), “(4.6)”; with SKOV3 (setting [8]) it was “(11)”; in the data set on 41MR (41MR versus 41M), “(2.7)”; in the data set on A2780R (A2780R versus A2780), “(14)”.

On to `N.N.[Cl][Pt][Cl]` [Cisplatin, [PtCl2 (NH3)2], reference compound], for which the pIC50 is 6.92 in the data set with CH1 (setting [2]); 4.81 in the data set on HX62 (setting [3]); 6.39 in the data set on 41M (setting [5]); 6.36 in the data set on CH1R (setting [6]); 5.37 with SKOV3 (setting [7]); 6.46 in the data set with A2780 (setting [9]). Also, the pIC50 was 5.72 in the data set on 41MR (setting [10]) and 5.11 with A2780R (setting [11]). The resistance factor entry is “(37.8)” with HX62 (setting [4]); “(3.7)” in the data set with CH1R (CH1R versus CH1); “(10.5)” in the data set on SKOV3 (setting [8]); “(4.6)” in the data set with 41MR (41MR versus 41M); “(22)” in the data set with A2780R (A2780R versus A2780). The “antitumour effect and tumour regrowth in the CH1 xenograft” value in the data set on CH1 xenograft was “significant activity at the maximum tolerated dose, however the tumour does grow back”. In addition, the “ED90; dose required to reduce tumour mass by 90%” value with ADJ/PC6 (ADJ/PC6, Daily × 5 (i.p.)) amounted to 0.2 mg/kg; with ADJ/PC6 (ADJ/PC6, Single dose (i.p.)), 1.6 mg/kg; with ADJ/PC6 (ADJ/PC6, Single dose (p.o.)) it was 24 mg/kg.

Take `Cc1cccc[n+]1[Pt-2]([NH3+])([Cl])[Cl]` [Example 1, (SP-4-3)-amminedichloro(2-methylpyridine) platinum(II)]: the pIC50 in the data set with CH1 (setting [2]) is 5.72; in the data set with HX62 (setting [3]), 4.40; in the data set on 41M (setting [5]) it was 5.39; in the data set with CH1R (setting [6]) it was 5.43; in the data set on SKOV3 (setting [7]) it was 4.76; in the data set on A2780 (setting [9]) it was 5.89. Moreover, the pIC50 was 5.30 in the data set on 41MR (setting [10]) and 5.36 in the data set on A2780R (setting [11]). For the setting “mice receiving a LD10 dose”, the “histological evidence of organ toxicity” value was “No significant histological evidence of liver, kidney, spleen, gastrointestinal tract, brain or skin toxicity”. Also, the “levels of ALP, ALT, gut disaccharides maltose, sucrose and trehalose, urea and creatinine compared to control mice” value (treated mice (LD50 dose)) is reported as “no significant differences”. Moreover, the resistance factor result in the data set with HX62 (setting [4]) was “(9.8)”; in the data set with CH1R (CH1R versus CH1), “(1.9)”; in the data set on SKOV3 (setting [8]), “(4.3)”; with 41MR (41MR versus 41M) it was “(1.2)”; with A2780R (A2780R versus A2780), “(3.4)”. Also, the “antitumour effect and tumour regrowth in the CH1 xenograft” value with CH1 xenograft is “exhibits a curative effect, and the tumour does not grow back”. The “potency in the CH1 xenograft compared with cisplatin” value in the data set with CH1 xenograft (greater dose is required than cisplatin) is “slightly less potency”. In addition, the “LD50; dose causing 50% lethality” value in [1] was 560 mg/kg. For the same compound, the “ED90; dose required to reduce tumour mass by 90%” value is given as 0.8 mg/kg with ADJ/PC6 (ADJ/PC6, Daily × 5 (i.p.)); 3 mg/kg in the data set on ADJ/PC6 (ADJ/PC6, Single dose (i.p.)); 6.2 mg/kg with ADJ/PC6 (ADJ/PC6, Single dose (p.o.)).

Regarding `CCc1ccccn1` [Example 2, 2-ethylpyridine], the pIC50 in the data set with CH1 (Homo sapiens, CH1; read-out: concentration necessary to achieve a 50% decrease in cell proliferation) is 5.85; with HX62 (Homo sapiens, HX62; read-out: concentration necessary to achieve a 50% decrease in cell proliferation), 4.44; with 41M (Homo sapiens) it was 5.47; in the data set with CH1R (setting [12]) it was 5.44; in the data set with SKOV3 (Homo sapiens, SK-OV-3; read-out: concentration necessary to achieve a 50% decrease in cell proliferation) it was 4.70; in the data set on A2780 (Homo sapiens, A2780; read-out: concentration necessary to achieve a 50% decrease in cell proliferation), 5.36. For the same compound, the pIC50 in the data set with 41MR (setting [12]) was 5.24; in the data set on A2780R (setting [12]) it was 4.96. Also, the resistance factor entry was “(10)” in the data set with HX62 (setting [4]); “(2.6)” in the data set with CH1R (CH1R versus CH1); “(2.9)” in the data set with SKOV3 (setting [8]); “(1.7)” in the data set on 41MR (41MR versus 41M); “(2.5)” in the data set with A2780R (A2780R versus A2780).

In the case of `Cc1ccnc(C)c1.N.[Cl][Pt][Cl]` [Example 4, (SP-4-3)-amminedichloro(2,4-dimethylpyridine)platinum(II)], the pIC50 in the data set on CH1 (setting [2]) was 5.64; with HX62 (setting [3]), 5.31; in the data set on 41M (setting [5]) it was 5.37; with CH1R (setting [6]), 5.28; in the data set on SKOV3 (setting [7]), 4.85; in the data set with A2780 (setting [9]), 5.18. Further, the pIC50 with 41MR (setting [10]) is 5.72; with A2780R (setting [11]), 4.74. The resistance factor entry in the data set on HX62 (setting [4]) is “(1)”; in the data set on CH1R (CH1R versus CH1), “(2.3)”; in the data set with SKOV3 (setting [8]), “(3)”; in the data set on 41MR (41MR versus 41M), “(0.4)”.

Take `CC(C)c1ccccn1` [Example 5, 2-isopropylpyridine]: the pIC50 with CH1 (Homo sapiens, CH1, read-out: concentration necessary to achieve a 50% decrease in cell proliferation) was 5.62; in the data set with HX62 (Homo sapiens, HX62, read-out: concentration necessary to achieve a 50% decrease in cell proliferation) it was 4.31; in the data set on 41M (Homo sapiens) it was 5.21; in the data set on CH1R (setting [13]), 5.38; in the data set with SKOV3 (Homo sapiens, SK-OV-3, read-out: concentration necessary to achieve a 50% decrease in cell proliferation), 4.70; with A2780 (Homo sapiens, A2780, read-out: concentration necessary to achieve a 50% decrease in cell proliferation), 5.41. Moreover, the figures for the pIC50 in the data set on 41MR (setting [13]) and with A2780R (setting [13]) were 5.25 and 4.85, respectively. In addition, the resistance factor result is on record as “(8)” with HX62 (setting [4]); “(1.7)” in the data set with CH1R (CH1R versus CH1); “(3.3)” with SKOV3 (setting [8]); “(0.9)” in the data set with 41MR (41MR versus 41M); “(3.6)” in the data set on A2780R (A2780R versus A2780).

Take `Cc1cc[n+]([Pt-2]([NH3+])([OH])([OH])([Cl])[Cl])c(C)c1` [Example 7, (OC-6-43)-amminedichlorodihydroxo(2,4-dimethylpyridine)platinum(IV)]: the pIC50 was 5.51 in the data set with CH1 (setting [2]); 4.14 in the data set on HX62 (setting [3]); 5.10 in the data set on 41M (setting [5]); 5.05 in the data set with CH1R (setting [6]); 4.33 in the data set on SKOV3 (setting [7]); 4.85 in the data set on A2780 (setting [9]). Moreover, the pIC50 is 4.76 in the data set on 41MR (setting [10]) and 4.52 in the data set with A2780R (setting [11]). For the same compound, the resistance factor result in the data set on HX62 (setting [4]) is recorded as “(9)”; with CH1R (CH1R versus CH1), “(2.5)”; in the data set on SKOV3 (setting [8]), “(5.9)”; with 41MR (41MR versus 41M) it was “(2.2)”; in the data set with A2780R (A2780R versus A2780) it was “(2.1)”.
